Reference: ChEMBL document CHEMBL3112450, “Synthesis and in vitro antitumor evaluation of primary amine substituted quinazoline linked benzimidazole” (Bioorg Med Chem Lett, 2014)

Legend:
Type in all cases: functional
RPMI-8226 = test: Cytotoxicity against human RPMI8226 cells assessed as growth inhibition at 10 uM after 48 hrs by SRB assay; settings: RPMI-8226, 48 h, read-out: GI
HOP-92 = test: Cytotoxicity against human HOP92 cells assessed as growth inhibition at 10 uM after 48 hrs by SRB assay; settings: HOP-92, 48 h, read-out: GI
LOX IMVI [1] = test: Cytotoxicity against human LOXIMVI cells assessed as cell growth at 10^-8 M after 48 hrs by SRB assay; settings: read-out: Activity
[2] = Cytotoxicity against human OVCAR5 cells assessed as cell growth at 10^-7 M after 48 hrs by SRB assay; settings: OVCAR-5, 48 h, read-out: Activity
A549 = test: Cytotoxicity against human A549 cells assessed as cell growth at 10^-6 M after 48 hrs by SRB assay; settings: A549, 48 h, read-out: Activity
HOP-62 [3] = test: Cytotoxicity against human HOP62 cells assessed as cell growth at 10^-4 M after 48 hrs by SRB assay; settings: HOP-62, 48 h, read-out: Activity
T47D [4] = test: Cytotoxicity against human T47D cells assessed as cell growth at 10^-7 M after 48 hrs by SRB assay; settings: read-out: Activity
T47D [5] = test: Cytotoxicity against human T47D cells assessed as cell growth at 10^-8 M after 48 hrs by SRB assay; settings: read-out: Activity
HCT-116 = test: Cytotoxicity against human HCT116 cells assessed as cell growth at 10^-8 M after 48 hrs by SRB assay; settings: HCT-116, 48 h, read-out: Activity
LOX IMVI [6] = test: Cytotoxicity against human LOXIMVI cells after 48 hrs by SRB assay
HOP-62 [7] = test: Cytotoxicity against human HOP62 cells after 48 hrs by SRB assay; settings: HOP-62, 48 h
SNB-19 = test: Cytotoxicity against human SNB19 cells assessed as cell growth at 10^-8 M after 48 hrs by SRB assay; settings: SNB-19, 48 h, read-out: Activity
TK-10 [8] = test: Cytotoxicity against human TK10 cells assessed as cell growth at 10^-7 M after 48 hrs by SRB assay; settings: TK-10, 48 h, read-out: Activity
HL-60(TB) = test: Cytotoxicity against human HL-60(TB) cells assessed as cell growth at 10^-7 M after 48 hrs by SRB assay; settings: HL-60, 48 h, read-out: Activity
TK-10 [9] = test: Cytotoxicity against human TK10 cells assessed as cell growth at 10^-4 M after 48 hrs by SRB assay; settings: TK-10, 48 h, read-out: Activity
Malme-3M = test: Cytotoxicity against human MALME-3M cells assessed as cell growth at 10^-4 M after 48 hrs by SRB assay; settings: read-out: Activity
MOLT-4 = test: Cytotoxicity against human MOLT4 cells after 48 hrs by SRB assay; settings: MOLT-4, 48 h
HOP-62 [10] = test: Cytotoxicity against human HOP62 cells assessed as cell growth at 10^-6 M after 48 hrs by SRB assay; settings: HOP-62, 48 h, read-out: Activity
MCF7 = test: Cytotoxicity against human MCF7 cells assessed as cell growth at 10^-8 M after 48 hrs by SRB assay; settings: MCF7, 48 h, read-out: Activity
A498 = test: Cytotoxicity against human A498 cells assessed as cell growth at 10^-7 M after 48 hrs by SRB assay; settings: A498, 48 h, read-out: Activity
SF-295 = test: Cytotoxicity against human SF295 cells assessed as cell growth at 10^-7 M after 48 hrs by SRB assay; settings: SF-295, 48 h, read-out: Activity
[11] = Cytotoxicity against human Hs578T cells after 48 hrs by SRB assay; settings: Hs-578T
M14 = test: Cytotoxicity against human M14 cells after 48 hrs by SRB assay; settings: M14, 48 h
[12] = Cytotoxicity against human OVCAR5 cells after 48 hrs by SRB assay; settings: OVCAR-5, 48 h
NCI-H460 = test: Cytotoxicity against human NCI-H460 cells assessed as cell growth at 10^-4 M after 48 hrs by SRB assay; settings: NCI-H460, 48 h, read-out: Activity
COLO 205 [13] = test: Cytotoxicity against human COLO205 cells assessed as cell growth at 10^-4 M after 48 hrs by SRB assay; settings: COLO 205, 48 h, read-out: Activity
[14] = Cytotoxicity against human OVCAR5 cells assessed as cell growth at 10^-6 M after 48 hrs by SRB assay; settings: OVCAR-5, 48 h, read-out: Activity
SR [15] = test: Cytotoxicity against human SR cells after 48 hrs by SRB assay
SR [16] = test: Cytotoxicity against human SR cells assessed as cell growth at 10^-8 M after 48 hrs by SRB assay; settings: read-out: Activity
IGROV-1 = test: Cytotoxicity against human IGROV1 cells assessed as cell growth at 10^-6 M after 48 hrs by SRB assay; settings: IGROV-1, 48 h, read-out: Activity
CCRF-CEM = test: Cytotoxicity against human CCRF-CEM cells assessed as cell growth at 10^-8 M after 48 hrs by SRB assay; settings: read-out: Activity
COLO 205 [17] = test: Cytotoxicity against human COLO205 cells assessed as cell growth at 10^-6 M after 48 hrs by SRB assay; settings: COLO 205, 48 h, read-out: Activity
HCC 2998 = test: Cytotoxicity against human HCC2998 cells after 48 hrs by SRB assay; settings: HCC 2998, 48 h
TK-10 [18] = test: Cytotoxicity against human TK10 cells assessed as cell growth at 10^-8 M after 48 hrs by SRB assay; settings: TK-10, 48 h, read-out: Activity
SF-268 = test: Cytotoxicity against human SF268 cells assessed as cell growth at 10^-6 M after 48 hrs by SRB assay; settings: SF-268, 48 h, read-out: Activity
NCI-H322M = test: Cytotoxicity against human NCI-H322M cells assessed as cell growth at 10^-7 M after 48 hrs by SRB assay; settings: read-out: Activity
SR [19] = test: Cytotoxicity against human SR cells assessed as growth inhibition at 10 uM after 48 hrs by SRB assay; settings: read-out: GI
SW-620 = test: Cytotoxicity against human SW620 cells assessed as growth inhibition at 10 uM after 48 hrs by SRB assay; settings: SW-620, 48 h, read-out: GI
OVCAR-8 = test: Cytotoxicity against human OVCAR8 cells assessed as growth inhibition at 10 uM after 48 hrs by SRB assay; settings: OVCAR-8, 48 h, read-out: GI
PC-3 = test: Cytotoxicity against human PC3 cells assessed as growth inhibition at 10 uM after 48 hrs by SRB assay; settings: PC-3, 48 h, read-out: GI

C=CCn1c(C)nc2ccc(Nc3nc(Nc4ncccn4)nc4ccccc34)cc21
inhibition of growth at 10 µM (RPMI-8226): 30% | inhibition of growth at 10 µM (HOP-92): 30%

C=CCn1c(C)nc2ccc(Nc3nc(NCCO)nc4ccccc34)cc21
inhibition of growth at 10 µM (HOP-92): 30%

C=CCn1c(C)nc2ccc(Nc3nc(Nc4ccc5nc(C)n(CC=C)c5c4)c4ccccc4n3)cc21
growth at 0.01 µM (LOX IMVI [1]): 91% | growth at 0.1 µM [2]: 91% | growth at 1 µM (A549): 93% | growth at 100 µM (HOP-62 [3]): -36% | growth at 0.1 µM (T47D [4]): 92% | growth at 0.01 µM (T47D [5]): 96% | growth at 0.01 µM (HCT-116): 108% | GI50 (LOX IMVI [6]): 1.55 µM | GI50 (HOP-62 [7]): 1.63 µM | TGI (HOP-62 [7]): 2.98 µM | growth at 0.01 µM (SNB-19): 92% | growth at 0.1 µM (TK-10 [8]): 99% | growth at 0.1 µM (HL-60(TB)): 94% | growth at 100 µM (TK-10 [9]): -49% | growth at 100 µM (Malme-3M): -5% | GI50 (MOLT-4): 1.67 µM | LC50 (MOLT-4): > 100 µM | growth at 1 µM (HOP-62 [10]): 90% | growth at 0.01 µM (MCF7): 92% | growth at 0.1 µM (A498): 64% | growth at 0.1 µM (SF-295): 98% | GI50 [11]: 1.71 µM | TGI [11]: 4.08 µM | GI50 (M14): 1.62 µM | TGI (M14): 3.04 µM | GI50 [12]: 1.7 µM | LC50 [12]: 5.62 µM | TGI [12]: 3.09 µM | growth at 100 µM (NCI-H460): -28% | growth at 100 µM (COLO 205 [13]): -18% | growth at 1 µM [14]: 94% | inhibition of growth at 10 µM (HOP-92): 50% | GI50 (SR [15]): 1.52 µM | LC50 (SR [15]): > 100 µM | TGI (SR [15]): 3.98 µM | growth at 0.01 µM (SR [16]): 97% | growth at 1 µM (IGROV-1): 99% | growth at 0.01 µM (CCRF-CEM): 97% | growth at 1 µM (COLO 205 [17]): 78% | GI50 (HCC 2998): 1.72 µM | LC50 (50% lethal concentration) (HCC 2998): 5.56 µM | TGI (HCC 2998): 3.09 µM | growth at 0.01 µM (TK-10 [18]): 100% | growth at 1 µM (SF-268): 79% | growth at 0.1 µM (NCI-H322M): 90%

C=CCn1c(C)nc2cc(Nc3nc(Nc4ccc5nc(C)n(CC=C)c5c4)c4ccccc4n3)ccc21
growth at 0.01 µM (LOX IMVI [1]): 95% | growth at 0.1 µM [2]: 95% | growth at 100 µM (HOP-62 [3]): -38% | growth at 0.1 µM (T47D [4]): 94% | growth at 0.01 µM (T47D [5]): 92% | growth at 0.01 µM (HCT-116): 106% | GI50 (LOX IMVI [6]): 0.18 µM | LC50 (LOX IMVI [6]): 0.64 µM | TGI (LOX IMVI [6]): 0.339 µM | GI50 (HOP-62 [7]): 0.232 µM | TGI (HOP-62 [7]): 0.552 µM | growth at 0.01 µM (SNB-19): 91% | growth at 0.1 µM (TK-10 [8]): 100% | growth at 0.1 µM (HL-60(TB)): 96% | growth at 100 µM (TK-10 [9]): -63% | growth at 100 µM (Malme-3M): -42% | GI50 (MOLT-4): 0.229 µM | LC50 (MOLT-4): > 100 µM | TGI (MOLT-4): 0.629 µM | growth at 1 µM (HOP-62 [10]): -34% | growth at 0.01 µM (MCF7): 101% | growth at 0.1 µM (A498): 100% | growth at 0.1 µM (SF-295): 93% | GI50 [11]: 2.16 µM | LC50 [11]: > 100 µM | TGI [11]: 5.16 µM | GI50 (M14): 1.43 µM | TGI (M14): 3.24 µM | GI50 [12]: 0.4 µM | TGI [12]: 1.49 µM | growth at 100 µM (NCI-H460): 1% | growth at 100 µM (COLO 205 [13]): -6% | growth at 1 µM [14]: 20% | GI50 (SR [15]): 0.222 µM | LC50 (SR [15]): > 100 µM | growth at 0.01 µM (SR [16]): 95% | growth at 1 µM (IGROV-1): 82% | growth at 0.01 µM (CCRF-CEM): 105% | growth at 1 µM (COLO 205 [17]): -75% | GI50 (HCC 2998): 1.2 µM | LC50 (50% lethal concentration) (HCC 2998): 5.03 µM | TGI (HCC 2998): 2.45 µM | growth at 0.01 µM (TK-10 [18]): 96% | growth at 1 µM (SF-268): 52% | growth at 0.1 µM (NCI-H322M): 91%

C=CCn1c(C)nc2cc(Nc3nc(NCCO)nc4ccccc34)ccc21
inhibition of growth at 10 µM (RPMI-8226): 30% | inhibition of growth at 10 µM (SR [19]): 30% | inhibition of growth at 10 µM (SW-620): 30% | inhibition of growth at 10 µM (OVCAR-8): 30% | inhibition of growth at 10 µM (PC-3): 30% | inhibition of growth at 10 µM (HOP-92): 40%

C=CCn1c(C)nc2ccc(Nc3nc(Sc4ccc(N)cc4)nc4ccccc34)cc21
inhibition of growth at 10 µM (RPMI-8226): 40% | inhibition of growth at 10 µM (OVCAR-8): 30% | inhibition of growth at 10 µM (HOP-92): 30%
